Patent US20260265538A1, “Aqueous Industrial Product Stabilized Against Microbial Contamination” (Thor GmbH, priority 2023, published 2026)

Test system: Bacteria mixture 1 (Pseudomonas genus)
Assay: Single inoculation of paint with bacteria mixture 1, live bacteria count (CFU/g) over 28 days (example 1)
Assay type: cell-based
Settings: for Colony forming units (CFU)/g of paint after days [d]: Table 1, Paint 1
Excerpt: Paints 1 to 3 were mixed and homogenized with various concentrations of the guanidinium salts to be tested.
The batches obtained of the paint thus prepared were inoculated repeatedly with a mixture of different wild-type bacterial strains that are of practical relevance with regard to contamination. These bacteria had previously been isolated from commercial emulsion paints containing conventional preservatives (bacteria mixture 1, Pseudomonas genus), which are microbially contaminated in practice, and commercial so-called preservative-free alkaline emulsion paints (bacteria mixture 2, alkaliphilic bacteria of the Nesterenkonia & Alkalibacterium genus), which are microbially contaminated in practice.
• Pseudomonas spp. (Pseudomonas oleovorans group) DSM 33933 • Pseudomonas aeruginosa DSM 33935 • Pseudomonas oleovorans DSM 33936 • Pseudomonas putida DSM 33937 • Pseudomonas aeruginosa DSM 33938
The inoculum was added to the respective sample in each inoculation at 2% (v/w) as a fresh cell suspension in a physiological saline solution (0.9% NaCl). The cell count of the added inoculum in example 1 was 10^5/ml, in examples 2 to 5 10^9/ml, and in example 6 10^6/ml, each in equal portions consisting of the individual bacterial strains. The cell suspension was produced by growing the individual bacteria at 30° C. for 24 h in liquid culture on a shaker. The medium used to grow the bacteria from bacteria mixture 1 was Müller-Hinton liquid medium. Bacteria from bacteria mixture 2 were grown in Müller-Hinton liquid medium that had been adjusted to pH 9.5-9.7 with an alkaline buffer solution beforehand. After growing, the individual liquid cultures were centrifuged, and the cells were resuspended in physiological saline solution. In order to adjust the mixture to the desired cell count, the individual bacteria suspensions, if necessary, were diluted accordingly before being combined with saline solution. The cell count of the inoculum was determined in each case by chamber counting.
In example 1, the samples were inoculated once with a bacteria suspension (bacteria mixture 1) with a cell count of 10^5/ml (2% v/w) and the growth thereof was monitored by determining the live bacteria count per g of paint (colony-forming units, CFU/g) in the samples over 28 days. The CFU/g was determined each time by taking an aliquot (1 g) from the previously homogenized sample and running a serial decadic dilution series in physiological saline solution (0.9% NaCl) by streaking on tryptic soy agar, followed by incubation of the agar plates at 30° C. for 48 h.
Inoculation 2% (w/v) with Bacteria Mixture 1, 10^5 CFU/ml

**Q.** How did the “Colony forming units (CFU)/g of paint after days [d]” value (from here on “Colony forming units (CFU)/g”) (+0.01% guanidine carbonate (67 ppm guanidine), pH 8.1, 0 d) turn out when N=C(N)N.N=C(N)N.O=C(O)O [guanidine carbonate] was run?
**A.** 1.2 × 10^3 CFU/g

**Q.** What about the “Colony forming units (CFU)/g” value (+0.01% guanidine carbonate (67 ppm guanidine), pH 8.1, 2 d) of the same molecule?
**A.** 3.2 × 10^3 CFU/g

**Q.** And the “Colony forming units (CFU)/g” value (+0.01% guanidine carbonate (67 ppm guanidine), pH 8.1, 5 d)?
**A.** 3.0 × 10^5 CFU/g

**Q.** What about the “Colony forming units (CFU)/g” value (+0.01% guanidine carbonate (67 ppm guanidine), pH 8.1, 28 d) of the same molecule?
**A.** 2.8 × 10^6 CFU/g

**Q.** And the “Colony forming units (CFU)/g” value (+0.025% guanidine carbonate (164 ppm guanidine), pH 8.3, 0 d)?
**A.** 1.2 × 10^3 CFU/g

**Q.** And the “Colony forming units (CFU)/g” value (+0.025% guanidine carbonate (164 ppm guanidine), pH 8.3, 2 d)?
**A.** 1.1 × 10^3 CFU/g

**Q.** What about the “Colony forming units (CFU)/g” value (+0.025% guanidine carbonate (164 ppm guanidine), pH 8.3, 5 d) of the same molecule?
**A.** 1.0 × 10^5 CFU/g

**Q.** What about the “Colony forming units (CFU)/g” value (+0.025% guanidine carbonate (164 ppm guanidine), pH 8.3, 28 d) of the same molecule?
**A.** 2.3 × 10^6 CFU/g

**Q.** And the “Colony forming units (CFU)/g” value (+0.05% guanidine carbonate (328 ppm guanidine), pH 8.5, 0 d)?
**A.** 9.0 × 10^2 CFU/g

**Q.** And the “Colony forming units (CFU)/g” value (+0.05% guanidine carbonate (328 ppm guanidine), pH 8.5, 2 d)?
**A.** <5 CFU/g

**Q.** What about the “Colony forming units (CFU)/g” value (+0.05% guanidine carbonate (328 ppm guanidine), pH 8.5, 5 d) of the same molecule?
**A.** <5 CFU/g

**Q.** What about the “Colony forming units (CFU)/g” value (+0.05% guanidine carbonate (328 ppm guanidine), pH 8.5, 28 d) of the same molecule?
**A.** <5 CFU/g

**Q.** And the “Colony forming units (CFU)/g” value (+0.075% guanidine carbonate (492 ppm guanidine), pH 8.7, 0 d)?
**A.** 1.1 × 10^3 CFU/g

**Q.** And the “Colony forming units (CFU)/g” value (+0.075% guanidine carbonate (492 ppm guanidine), pH 8.7, 2 d)?
**A.** <5 CFU/g

**Q.** What about the “Colony forming units (CFU)/g” value (+0.075% guanidine carbonate (492 ppm guanidine), pH 8.7, 5 d) of the same molecule?
**A.** <5 CFU/g

**Q.** And the “Colony forming units (CFU)/g” value (+0.075% guanidine carbonate (492 ppm guanidine), pH 8.7, 28 d)?
**A.** <5 CFU/g

**Q.** And the “Colony forming units (CFU)/g” value (+0.1% guanidine carbonate (656 ppm guanidine), pH 9.0, 0 d)?
**A.** 1.2 × 10^3 CFU/g

**Q.** And the “Colony forming units (CFU)/g” value (+0.1% guanidine carbonate (656 ppm guanidine), pH 9.0, 2 d)?
**A.** <5 CFU/g

**Q.** What about the “Colony forming units (CFU)/g” value (+0.1% guanidine carbonate (656 ppm guanidine), pH 9.0, 5 d) of the same molecule?
**A.** <5 CFU/g

**Q.** What about the “Colony forming units (CFU)/g” value (+0.1% guanidine carbonate (656 ppm guanidine), pH 9.0, 28 d) of the same molecule?
**A.** <5 CFU/g

**Q.** And the “Stabilization of the paint against microbial infestation” value (table 1, addition of 0.05% by weight to a paint having a pH of greater than or equal to pH 8.5)?
**A.** distinct stabilization
